From patent publication US10059713B2 (Takeda Pharmaceutical Company Limited, priority 2014, dated 2018)
pEC50: −log10 of the molar value.

These compounds were tested against human GPR43 (Homo sapiens (Human), UniProt O15552) (assay: Ca-Flux functional assay: determination of agonist/positive allosteric modulator (PAM) activity). Conditions: CHO-K1 Gα16 cells stably expressing human GPR43; compound added with EC20 sodium acetate; intracellular Ca2+ by FLIPR; does not distinguish agonist from PAM.
Chain of human GPR43 (O15552 whole entry): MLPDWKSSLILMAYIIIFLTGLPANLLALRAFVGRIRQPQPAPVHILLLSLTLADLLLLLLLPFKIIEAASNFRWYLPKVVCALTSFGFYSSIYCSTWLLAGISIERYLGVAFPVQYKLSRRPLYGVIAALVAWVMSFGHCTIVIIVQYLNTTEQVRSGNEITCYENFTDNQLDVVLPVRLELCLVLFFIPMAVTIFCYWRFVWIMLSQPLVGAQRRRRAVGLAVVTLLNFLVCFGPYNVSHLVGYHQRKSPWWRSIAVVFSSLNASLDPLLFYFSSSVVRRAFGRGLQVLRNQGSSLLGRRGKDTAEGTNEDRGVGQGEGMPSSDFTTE
Assay type: cell-based
Method in brief: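 CHO-K1 Gα16 cells stably expressing human GPR43, loaded with Calcium 5 dye 1 h; compounds (10-point half-log from 10 μM) added with sodium acetate at EC20. FLIPR calcium signal gave EC50, two wells per point; agonists and PAMs not distinguished.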
With `CCC(CC)Oc1ncnc2c(S(=O)(=O)c3ccccc3)c(N)[nH]c12` [Example 213, 7-(benzenesulfonyl)-4-(pentan-3-yloxy)-5H-pyrrolo[3,2-d]pyrimidin-6-amine] the pEC50 was 7.77.
Compound `COC1CCN(c2ncnc3c(S(=O)(=O)c4ccccc4)c(N)[nH]c23)CC1` [Example 28, 7-(benzenesulfonyl)-4-(4-methoxypiperidin-1-yl)-5H-pyrrolo[3,2-d]pyrimidin-6-amine] has a pEC50 of 6.19.
With `CC1(C)CCCN1c1ncnc2c(S(=O)(=O)c3ccccc3)c(N)[nH]c12` [Example 56, 7-(benzenesulfonyl)-4-(2,2-dimethylpyrrolidin-1-yl)-5H-pyrrolo[3,2-d]pyrimidin-6-amine] the pEC50 was 7.74.
Work on `Cc1nc(N2CCOC(C)(C)C2C)c2[nH]c(N)c(S(=O)(=O)c3ccccc3F)c2n1` (stereo not drawn) [Example 8, 7-(2-fluorobenzenesulfonyl)-2-methyl-4-(2,2,3-trimethylmorpholin-4-yl)-5H-pyrrolo[3,2-d]pyrimidin-6-amine] yielded a pEC50 of 8.52.
`Cc1nc(N2CCOC(C)(C)C2)c2[nH]c(N)c(S(=O)(=O)c3c(F)cccc3F)c2n1` [Example 287, 7-(2,6-difluorobenzenesulfonyl)-4-(2,2-dimethylmorpholin-4-yl)-2-methyl-5H-pyrrolo[3,2-d]pyrimidin-6-amine] gave a pEC50 of 8.05.
Compound `CSc1nc(N2CCOC(C(F)(F)F)C2)c2[nH]c(N)c(S(=O)(=O)c3ccccc3F)c2n1` (stereo not drawn) [Example 301, 7-(2-fluorobenzenesulfonyl)-2-(methylsulfanyl)-4-[2-(trifluoromethyl)morpholin-4-yl]-5H-pyrrolo[3,2-d]pyrimidin-6-amine] has a pEC50 of 7.85.
Work on `COC1CCN(c2ncnc3c(S(=O)(=O)c4ccccc4)c(N)[nH]c23)C1` (stereo not drawn) [Example 117, 7-(benzenesulfonyl)-4-(3-methoxypyrrolidin-1-yl)-5H-pyrrolo[3,2-d]pyrimidin-6-amine] yielded a pEC50 of 5.48.
Compound `Cc1ccc(-c2ncnc3c(S(=O)(=O)c4ccccc4)c(N)[nH]c23)cc1` [Example 104, 7-(benzenesulfonyl)-4-(4-methylphenyl)-5H-pyrrolo[3,2-d]pyrimidin-6-amine] has a pEC50 of 7.23.
`Cc1nc(N2CCOC(C)C2)c2[nH]c(N)c(S(=O)(=O)c3cc(F)ccc3F)c2n1` (stereo not drawn) [Example 229, 7-(2,5-difluorobenzenesulfonyl)-2-methyl-4-(2-methylmorpholin-4-yl)-5H-pyrrolo[3,2-d]pyrimidin-6-amine] gave a pEC50 of 8.15.
With `COCCOc1ncnc2c(S(=O)(=O)c3ccccc3)c(N)[nH]c12` [Example 174, 7-(benzenesulfonyl)-4-(2-methoxyethoxy)-5H-pyrrolo[3,2-d]pyrimidin-6-amine] the pEC50 was 5.18.
Compound `Cc1nc(OC(C)C2CC2)c2[nH]c(N)c(S(=O)(=O)c3ccccc3)c2n1` (stereo not drawn) [Example 230, 7-(benzenesulfonyl)-4-(1-cyclopropylethoxy)-2-methyl-5H-pyrrolo[3,2-d]pyrimidin-6-amine] has a pEC50 of 7.66.
Compound `CCC1(CC)CN(c2ncnc3c(S(=O)(=O)c4ccccc4)c(N)[nH]c23)CCO1` [Example 103, 7-(benzenesulfonyl)-4-(2,2-diethylmorpholin-4-yl)-5H-pyrrolo[3,2-d]pyrimidin-6-amine] has a pEC50 of 7.44.
For `CC(C)c1ncnc2c(S(=O)(=O)c3ccccc3)c(N)[nH]c12` [Example 15, 7-(benzenesulfonyl)-4-(propan-2-yl)-5H-pyrrolo[3,2-d]pyrimidin-6-amine], the pEC50 was 5.98.
`Nc1[nH]c2c(-c3ccccc3)ncnc2c1S(=O)(=O)c1ccccc1` [Example 9, 7-(benzenesulfonyl)-4-phenyl-5H-pyrrolo[3,2-d]pyrimidin-6-amine] showed a pEC50 of 7.32.
`Nc1[nH]c2c(N3CCCCC3)ncnc2c1S(=O)(=O)c1ccccc1` [Example 7, 7-(benzenesulfonyl)-4-(piperidin-1-yl)-5H-pyrrolo[3,2-d]pyrimidin-6-amine] was tested, and the pEC50 was 7.33.
With `Nc1[nH]c2c(OCC3CCCCC3)ncnc2c1S(=O)(=O)c1ccccc1` [Example 165, 7-(benzenesulfonyl)-4-(cyclohexylmethoxy)-5H-pyrrolo[3,2-d]pyrimidin-6-amine] the pEC50 was 7.14.
`Cc1nc(OC(C)C2CCCC2)c2[nH]c(N)c(S(=O)(=O)c3ccccc3)c2n1` (stereo not drawn) [Example 247, 7-(benzenesulfonyl)-4-(1-cyclopentylethoxy)-2-methyl-5H-pyrrolo[3,2-d]pyrimidin-6-amine] was tested, and the pEC50 was 7.80.
Work on `Cc1cc(CN(C)c2ncnc3c(S(=O)(=O)c4ccccc4)c(N)[nH]c23)no1` [Example 99, 7-(benzenesulfonyl)-4-N-methyl-4-N-[(5-methyl-1,2-oxazol-3-yl)methyl]-5H-pyrrolo[3,2-d]pyrimidine-4,6-diamine] yielded a pEC50 of 5.33.
`Nc1[nH]c2c(OCC3CCCC3)ncnc2c1S(=O)(=O)c1ccccc1` [Example 201, 7-(benzenesulfonyl)-4-(cyclopentylmethoxy)-5H-pyrrolo[3,2-d]pyrimidin-6-amine] showed a pEC50 of 7.30.
`C=C(C)c1ncnc2c(S(=O)(=O)c3ccccc3)c(N)[nH]c12` [Example 12, 7-(benzenesulfonyl)-4-(prop-1-en-2-yl)-5H-pyrrolo[3,2-d]pyrimidin-6-amine] gave a pEC50 of 6.45.
`O=S(=O)(c1ccccc1)c1c(NC2CCC(F)(F)CC2)[nH]c2ncccc12` [Example 1, 3-(benzenesulfonyl)-N-(4,4-difluorocyclohexyl)-1H-pyrrolo[2,3-b]pyridin-2-amine] was tested, and the pEC50 was 5.26.
In the case of `Cc1nc(OC(C)C)c2[nH]c(N)c(S(=O)(=O)c3ccccc3F)c2n1` [Example 272, 7-(2-fluorobenzenesulfonyl)-2-methyl-4-(propan-2-yloxy)-5H-pyrrolo[3,2-d]pyrimidin-6-amine], the pEC50 was 7.47.
`C=C(C)c1ncnc2c(S(=O)(=O)c3ccc(OC)cc3)c(N)[nH]c12` [Example 71, 7-(4-methoxybenzenesulfonyl)-4-(prop-1-en-2-yl)-5H-pyrrolo[3,2-d]pyrimidin-6-amine] gave a pEC50 of 6.26.
Compound `COc1ccc(S(=O)(=O)c2c(N)[nH]c3c(N4CCOC(C)C4)ncnc23)cc1Cl` (stereo not drawn) [Example 123, 7-(3-chloro-4-methoxybenzenesulfonyl)-4-(2-methylmorpholin-4-yl)-5H-pyrrolo[3,2-d]pyrimidin-6-amine] has a pEC50 of 6.94.
`CN(CC1CCCCO1)c1ncnc2c(S(=O)(=O)c3ccccc3)c(N)[nH]c12` (stereo not drawn) [Example 91, 7-(benzenesulfonyl)-4-N-methyl-4-N-(oxan-2-ylmethyl)-5H-pyrrolo[3,2-d]pyrimidine diamine] showed a pEC50 of 5.85.
`Cc1nc(N2CCO[C@@H](C)C2)c2[nH]c(N)c(S(=O)(=O)c3ccc(Br)cc3F)c2n1` [Example 239, 7-(4-bromo-2-fluorobenzenesulfonyl)-2-methyl-4-[(2S)-2-methylmorpholin-4-yl]-5H-pyrrolo[3,2-d]pyrimidin-6-amine] was tested, and the pEC50 was 8.70.
With `C[C@@H]1CN(c2ncnc3c(S(=O)(=O)c4ccccc4)c(N)[nH]c23)C[C@@H](C)O1` [Example 87, 7-(benzenesulfonyl)-4-[(2R,6R)-2,6-dimethylmorpholin-4-yl]-5H-pyrrolo[3,2-d]pyrimidin-6-amine] the pEC50 was 7.47.
`CC1CC(Oc2ncnc3c(S(=O)(=O)c4ccccc4)c(N)[nH]c23)CC(C)O1` (stereo not drawn) [Example 210, 7-(benzenesulfonyl)-4-[(2,6-dimethyloxan-4-yl)oxy]-5H-pyrrolo[3,2-d]pyrimidin-6-amine] was tested, and the pEC50 was 6.81.
In the case of `COc1cccc(S(=O)(=O)c2c(N)[nH]c3c(N4CCOC(C)C4)ncnc23)c1` (stereo not drawn) [Example 154, 7-(3-methoxybenzenesulfonyl)-4-(2-methylmorpholin-4-yl)-5H-pyrrolo[3,2-d]pyrimidin-6-amine], the pEC50 was 7.33.
With `Cc1ccccc1S(=O)(=O)c1c(N)[nH]c2c(N3CCOC(C)C3)ncnc12` (stereo not drawn) [Example 120, 7-(2-methylbenzenesulfonyl)-4-(2-methylmorpholin-4-yl)-5H-pyrrolo[3,2-d]pyrimidin-6-amine] the pEC50 was 6.88.
With `Nc1[nH]c2c(OC3CCC3)ncnc2c1S(=O)(=O)c1ccccc1` [Example 167, 7-(benzenesulfonyl)-4-cyclobutoxy-5H-pyrrolo[3,2-d]pyrimidin-6-amine] the pEC50 was 7.12.
`Cc1nc(Nc2ccc(Cl)cc2)c2[nH]c(N)c(S(=O)(=O)c3ccccc3F)c2n1` [Example 300, N4-(4-chlorophenyl)-7-(2-fluorobenzenesulfonyl)-2-methyl-5H-pyrrolo[3,2-d]pyrimidine-4,6-diamine] showed a pEC50 of 8.05.
With `Cc1nc(N2CCOC(C(F)(F)F)C2)c2[nH]c(N)c(S(=O)(=O)c3ccccc3)c2n1` (stereo not drawn) [Example 225, 7-(benzenesulfonyl)-2-methyl-4-[2-(trifluoromethyl)morpholin-4-yl]-5H-pyrrolo[3,2-d]pyrimidin-6-amine] the pEC50 was 7.85.
For `CC(C)C1CN(c2ncnc3c(S(=O)(=O)c4ccccc4)c(N)[nH]c23)CCO1` (stereo not drawn) [Example 184, 7-(benzenesulfonyl)-4-[2-(propan-2-yl)morpholin-4-yl]-5H-pyrrolo[3,2-d]pyrimidin-6-amine], the pEC50 was 7.08.
`CCNc1ncnc2c(S(=O)(=O)c3ccccc3)c(N)[nH]c12` [Example 65, 7-(benzenesulfonyl)-4-N-ethyl-5H-pyrrolo[3,2-d]pyrimidine-4,6-diamine] was tested, and the pEC50 was 5.17.
`COc1ccc(S(=O)(=O)c2c(N)[nH]c3c(C4=CCCCC4)ncnc23)cc1` [Example 4, 4-(cyclohex-1-en-1-yl)-7-[(4-methoxybenzene)sulfonyl]-5H-pyrrolo[3,2-d]pyrimidin-6-amine] was tested, and the pEC50 was 7.60.
Compound `Cc1nc(N2CCO[C@@H](CF)C2)c2[nH]c(N)c(S(=O)(=O)c3ccccc3F)c2n1` [Example 299, 7-(2-fluorobenzenesulfonyl)-4-[(2R)-2-(fluoromethyl)morpholin-4-yl]-2-methyl-5H-pyrrolo[3,2-d]pyrimidin-6-amine] has a pEC50 of 9.00.
For `Cc1nc(OCC2CCC2)c2[nH]c(N)c(S(=O)(=O)c3ccccc3)c2n1` [Example 249, 7-(benzenesulfonyl)-4-(cyclobutylmethoxy)-2-methyl-5H-pyrrolo[3,2-d]pyrimidin-6-amine], the pEC50 was 7.51.
Compound `Cc1nc(OC(C)C2CCC2)c2[nH]c(N)c(S(=O)(=O)c3ccccc3)c2n1` (stereo not drawn) [Example 256, 7-(benzenesulfonyl)-4-(1-cyclobutylethoxy)-2-methyl-5H-pyrrolo[3,2-d]pyrimidin-6-amine] has a pEC50 of 7.74.
